Experimental data published in the supplement of paper PMC10627819.

How the values were obtained:
Experiment in all cases: fitness (endpoint OD595 vs no drug) (fraction); higher = more growth
[1] = tested on: S. aureus Newman
Method in brief: (§1)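 At 37 °C, bacteria in TSB, LB Lennox or CY were grown in 384-well plates from a starting OD595 of 0.01. OD595 was measured every 30 min for 14 h, with the first reading used as background. Fitness is the optical density at the switch to stationary phase as a fraction of the robust mean of no-drug control wells, capped at 1.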

[2] = tested on: B. subtilis 168; conditions: main component drawn
Method in brief: as §1

[3] = tested on: S. pneumoniae D39V; conditions: main component drawn
Method in brief: as §1
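Note: OD595 on entry to stationary phase over no-drug wells; at most 1.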

CO/N=C(\C(=O)N[C@@H]1C(=O)N2C(C(=O)O)=C(COC(C)=O)CS[C@H]12)c1csc(N)n1 [Cefotaxime] + CC1(C)S[C@@H]2[C@H](NC(=O)Cc3ccccc3)C(=O)N2[C@H]1C(=O)O [Penicillin G]
fitness, [1]
Conditions | first compound 0.078 µg/mL | first compound 0.156 µg/mL | first compound 0.312 µg/mL
partner 0.0195 µg/mL | 0.677 | 0.506 | 0.297
partner 0.039 µg/mL | 0.644 | 0.49 | 0.288
partner 0.078 µg/mL | 0.693 | 0.541 | 0.301

fitness, [1], one replicate
Conditions | first compound 0.625 µg/mL | first compound 1.25 µg/mL | first compound 2.5 µg/mL
partner 0.0195 µg/mL | 0.0231 | 0.0448 | 0.071
partner 0.039 µg/mL | 0.0366 | 0.0335 | 0.0438
partner 0.078 µg/mL | 0.0525 | 0.0319 | 0.0774

CO/N=C(\C(=O)N[C@@H]1C(=O)N2C(C(=O)O)=C(COC(N)=O)CS[C@H]12)c1ccco1 [Cefuroxime] + CC1(C)S[C@@H]2[C@H](NC(=O)Cc3ccccc3)C(=O)N2[C@H]1C(=O)O [Penicillin G]
fitness, [1], one replicate
Conditions | first compound 0.04875 µg/mL | first compound 0.0975 µg/mL | first compound 0.195 µg/mL
partner 0.0195 µg/mL | 0.873 | 0.849 | 0.889
partner 0.039 µg/mL | 0.959 | 0.831 | 0.907
partner 0.078 µg/mL | 0.898 | 0.888 | 0.906

CO/N=C(\C(=O)N[C@@H]1C(=O)N2C(C(=O)O)=C(COC(N)=O)CS[C@H]12)c1ccco1 [Cefuroxime] + CO/N=C(\C(=O)N[C@@H]1C(=O)N2C(C(=O)[O-])=C(C[N+]3(C)CCCC3)CS[C@H]12)c1csc(N)n1 [Cefepime]
fitness, [1], one replicate
Conditions | first compound 0.04875 µg/mL | first compound 0.0975 µg/mL | first compound 0.195 µg/mL
partner 0.125 µg/mL | 0.984 | 0.841 | 0.925
partner 0.25 µg/mL | 0.871 | 0.821 | 0.922
partner 0.5 µg/mL | 0.88 | 0.731 | 0.864

CO/N=C(\C(=O)N[C@@H]1C(=O)N2C(C(=O)O)=C(COC(N)=O)CS[C@H]12)c1ccco1 [Cefuroxime] + CO[C@@]12[C@H](COC(N)=O)C3=C(C(=O)C(C)=C(N)C3=O)N1C[C@@H]1N[C@@H]12 [Mitomycin C]
fitness, [1], one replicate
Conditions | first compound 0.04875 µg/mL | first compound 0.0975 µg/mL | first compound 0.195 µg/mL
partner 0.0156 µg/mL | 0.6 | 0.597 | 0.653
partner 0.0312 µg/mL | 0.35 | 0.338 | 0.332
partner 0.0625 µg/mL | 0.537 | 0.488 | 0.413

CN(C)[C@@H]1C(O)=C(C(N)=O)C(=O)[C@@]2(O)C(O)=C3C(=O)c4c(O)ccc(Cl)c4[C@@](C)(O)[C@H]3C[C@@H]12 [Chlortetracycline] + CC(C1CCC(C(O1)OC2C(CC(C(C2O)OC3C(C(C(CO3)(C)O)NC)O)N)N)N)NC [Gentamicin]
Conditions | fitness
[2], first compound 0.0475 µg/mL, partner 0.0625 µg/mL | 0.917
[2], first compound 0.095 µg/mL, partner 0.0625 µg/mL | 0.778
[2], first compound 0.19 µg/mL, partner 0.25 µg/mL | 0.0795
[3], first compound 0.012 µg/mL, partner 2 µg/mL | 0.8
[3], first compound 0.012 µg/mL, partner 4 µg/mL | 0.752
[3], first compound 0.012 µg/mL, partner 8 µg/mL | 0.706
[3], first compound 0.024 µg/mL, partner 2 µg/mL | 0.393
[3], first compound 0.024 µg/mL, partner 4 µg/mL | 0.392
[3], first compound 0.024 µg/mL, partner 8 µg/mL | 0.389
[3], first compound 0.048 µg/mL, partner 2 µg/mL | 0.255
[3], first compound 0.048 µg/mL, partner 4 µg/mL | 0.184
[3], first compound 0.048 µg/mL, partner 8 µg/mL | 0.187
[3], first compound 0.375 µg/mL, partner 2 µg/mL | 0.0667
[3], first compound 0.375 µg/mL, partner 4 µg/mL | 0.0598
[3], first compound 0.375 µg/mL, partner 8 µg/mL | 0.0694
[3], first compound 0.75 µg/mL, partner 2 µg/mL | 0.0603
[3], first compound 0.75 µg/mL, partner 4 µg/mL | 0.0825
[3], first compound 0.75 µg/mL, partner 8 µg/mL | 0.0967
[3], first compound 1.5 µg/mL, partner 2 µg/mL | 0.0704
[3], first compound 1.5 µg/mL, partner 4 µg/mL | 0.0878
[3], first compound 1.5 µg/mL, partner 8 µg/mL | 0.0614

CN(C)[C@@H]1C(O)=C(C(N)=O)C(=O)[C@@]2(O)C(O)=C3C(=O)c4c(O)ccc(Cl)c4[C@@](C)(O)[C@H]3C[C@@H]12 [Chlortetracycline] + CCC(C)C1C(=O)NC(=C)C(=O)NC(C(=O)NC(CSCC(C(=O)N1)NC(=O)/C(=C/C)/NC(=O)C(C(C)CC)N)C(=O)NC2C(SCC(NC(=O)CNC(=O)C3CCCN3C2=O)C(=O)NC(CCCCN)C(=O)NC4C(SCC(NC(=O)CNC(=O)C(NC(=O)C(NC(=O)C(NC(=O)CNC4=O)C)CC(C)C)CCSC)C(=O)NC(CC(=O)N)C(=O)NC(CCSC)C(=O)NC(CCCCN)C(=O)NC5C(SCC6C(=O)NC(C(=O)NC(CSC(C(C(=O)N6)NC(=O)C(NC5=O)C)C)C(=O)NC(CO)C(=O)NC(C(C)CC)C(=O)NC(CC7=CN=CN7)C(=O)NC(C(C)C)C(=O)NC(=C)C(=O)NC(CCCCN)C(=O)O)CC8=CN=CN8)C)C)C)CC(C)C [Nisin]
Conditions | fitness
[2], first compound 0.0475 µg/mL, partner 0.5 µg/mL | 0.902
[2], first compound 0.0475 µg/mL, partner 1 µg/mL | 0.849
[2], first compound 0.0475 µg/mL, partner 2 µg/mL | 0.452
[2], first compound 0.095 µg/mL, partner 0.5 µg/mL | 0.794
[2], first compound 0.095 µg/mL, partner 1 µg/mL | 0.733
[2], first compound 0.095 µg/mL, partner 2 µg/mL | 0.387
[2], first compound 0.19 µg/mL, partner 0.5 µg/mL | 0.605
[2], first compound 0.19 µg/mL, partner 1 µg/mL | 0.454
[2], first compound 0.19 µg/mL, partner 2 µg/mL | 0.116
[3], first compound 0.012 µg/mL, partner 0.4275 µg/mL | 0.973
[3], first compound 0.012 µg/mL, partner 0.855 µg/mL | 0.804
[3], first compound 0.012 µg/mL, partner 1.71 µg/mL | 0.0763
[3], first compound 0.024 µg/mL, partner 0.4275 µg/mL | 0.909
[3], first compound 0.024 µg/mL, partner 0.855 µg/mL | 0.526
[3], first compound 0.024 µg/mL, partner 1.71 µg/mL | 0.0832
[3], first compound 0.048 µg/mL, partner 0.4275 µg/mL | 0.766
[3], first compound 0.048 µg/mL, partner 1.71 µg/mL | 0.0976
[3], first compound 0.375 µg/mL, partner 1.6 µg/mL | 0.014
[3], first compound 0.375 µg/mL, partner 3.2 µg/mL | 0.0066
[3], first compound 0.375 µg/mL, partner 6.4 µg/mL | 0.0151
[3], first compound 0.75 µg/mL, partner 1.6 µg/mL | 0.0251
[3], first compound 0.75 µg/mL, partner 3.2 µg/mL | 0.0392
[3], first compound 0.75 µg/mL, partner 6.4 µg/mL | 0.0332
[3], first compound 1.5 µg/mL, partner 1.6 µg/mL | 0.0279
[3], first compound 1.5 µg/mL, partner 3.2 µg/mL | 0.0271
[3], first compound 1.5 µg/mL, partner 6.4 µg/mL | 0.064

fitness, [2], one replicate
Conditions | partner 1.25 µg/mL | partner 1.6 µg/mL | partner 2.5 µg/mL | partner 3.2 µg/mL | partner 4 µg/mL | partner 5 µg/mL | partner 6.4 µg/mL | partner 8 µg/mL | partner 16 µg/mL
first compound 0.0475 µg/mL | 0.902 | 0.609 | 0.642 | 0.0268 | 0.0247 | 0.0756 | 0.0534 | 0.006 | 0
first compound 0.095 µg/mL | 0.805 | 0.49 | 0.607 | 0.0306 | 0.0278 | 0.0684 | 0.0417 | 0.0191 | 0.0123
first compound 0.19 µg/mL | 0.686 | 0.0405 | 0.338 | 0.0435 | 0.0329 | 0.0442 | 0.0404 | 0.0227 | 0.0213
